Results as given in paper PMC5104457, “ATP-Competitive MLKL Binders Have No Functional Impact on Necroptosis” (PLoS ONE, 2016).
Like-named read-outs stand apart in the source and are kept apart here.

Assays:
[1] = target: T1, kinase domain of RIPK1 (Homo sapiens, UniProt Q13546); assay: Differential scanning fluorimetry (thermal shift), RIPK1 kinase domain; format: binding; conditions: 10 μM compound, 1 μM protein, average of triplicates
T1 construct: The kinase domain of RIPK1; made in house
T1 sequence (Q13546 17-289 limits assumed): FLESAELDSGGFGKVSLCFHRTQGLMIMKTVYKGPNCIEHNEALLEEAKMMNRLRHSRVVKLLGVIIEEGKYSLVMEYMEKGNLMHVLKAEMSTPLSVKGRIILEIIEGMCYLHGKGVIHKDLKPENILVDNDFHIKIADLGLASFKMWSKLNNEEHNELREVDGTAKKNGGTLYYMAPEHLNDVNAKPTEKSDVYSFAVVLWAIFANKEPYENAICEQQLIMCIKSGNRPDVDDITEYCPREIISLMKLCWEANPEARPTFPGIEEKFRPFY
Experimental: (§1) To measure the thermal stabilization of the proteins upon compound binding we employed differential scanning fluorimetry (DSF). The kinase domain of RIPK1 and the N-terminal domain HSP90α were expressed and purified as previously described. The pseudokinase MLKL-1, RIPK1 and Hsp90 were melted at 1μM final concentrations in 25mM HEPES pH 8.0, 250mM NaCl and 2.5mM DTT. Compounds were added to a final concentration of 10 μ M with a final DMSO concentration of 5%. The complexes were incubated on ice for 30 minutes. Protein Thermal Shift dye (Life Technologies) was added to 1X. The fluorescence intensities were measured using a Quantstudio real-time PCR system (Life Technologies) with excitation at 470 nm and emission at 586 nm. The samples, measured in triplicate, were heated from 25 to 85°C with a heating rate of […].

[2] = target: T2, pseudokinase MLKL-1 (Homo sapiens, UniProt Q8NB16); assay: Differential scanning fluorimetry (thermal shift), MLKL pseudokinase domain; format: binding; conditions: 10 μM compound, 1 μM protein, average of triplicates; read-out: MLKL Pseudo-kinase thermal shift at 10 μM
T2 construct: sub-cloning residues 191 to 471 of the pseudokinase domain of human MLKL cDNA; His6 (thrombin cleavable) (N); made in house; host or cells: Escherichia coli BL21 (DE3)
T2 sequence (Q8NB16 191-471): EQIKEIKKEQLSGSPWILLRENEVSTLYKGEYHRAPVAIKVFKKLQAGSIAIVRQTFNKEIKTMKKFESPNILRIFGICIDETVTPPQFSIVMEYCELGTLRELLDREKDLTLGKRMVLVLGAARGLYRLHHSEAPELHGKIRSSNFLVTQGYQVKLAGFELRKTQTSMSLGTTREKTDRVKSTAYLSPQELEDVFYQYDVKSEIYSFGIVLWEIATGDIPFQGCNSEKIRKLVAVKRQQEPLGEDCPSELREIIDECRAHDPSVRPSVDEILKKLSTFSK
Source text: MLKL-1 was constructed by sub-cloning residues 191 to 471 of the pseudokinase domain of human MLKL cDNA into a pET15b vector with a thrombin cleavable N-terminal six histidine fusion tag (His-MLKL-1). MLKL-2 had the same protein boundaries and fusion tag system as MLKL-1 but the dual mutations E366A and K367A were introduced using site directed mutagenesis and was expressed in the same vector (His-MLKL-2).
as §1

[3] = system: FADD (-/-) Jurkat cells; assay: Necroptosis assay: rescue from TNF-α induced cell death; format: cell-based; conditions: Homo sapiens; for IC50: read-out: Necroptosis cell IC50
Experimental: Necroptosis assays were performed at Charles River Laboratories (United Kingdom) and at Biogen. […] On the day of the experiment, cells were counted using Nexcelom Bioscience Cell Meter Vision and pelleted by centrifugation. Cell pellets were resuspended in fresh medium at 500,000 cells per mL and transferred to assay-ready compound plates prepared in 384-well white TC plates (Greiner #781080) at 20μl cells per well. Cells and compound were incubated at room temperature for 30 minutes followed by +/- stimulation with 15ng/ml TNF-α (Cell signalling Technologies #8902LF) overnight at 37°C. In the morning, plates were equilibrated to room temperature for 30 minutes and 25μl of CellTiter-Glow (CellTiter-Glo 2.0 Assay, Promega # G9243) diluted 1:4 in PBS was added to each well and allowed to incubate for 10 minutes at room temperature. Luminescence was read on an Envision plate reader (Perkin Elmer).
TNF-α added to these cells induces necroptosis or cell death. The term “Rescue” refers to the ability of a compound to prevent loss of cell viability in the presence of TNF. Definitions of the presence or absence of compound or TNF stimulation in the wells that were used to calculate degree of rescue or viability is defined in Table 1.
100% percent rescue is defined as the value of the “no TNF” wells minus the value of wells treated with “TNF”.
Percent Rescue is then the ratio of the intensity value of the experimental “well” minus the value of “TNF” treated wells divided by the overall difference between the value of “no TNF” treated wells and the value of “TNF” treated wells.
%rescue=((well - TNF)/(no TNF - TNF))x100

[4] = system: 403 non-mutant kinases; assay: DiscoverX kinase selectivity panel; format: binding; conditions: 1 μM compound
Source text: We then characterized several compounds that were expected to bind to MLKL across a broad panel of 403 non-mutant kinases at DiscoverX.

[5] = system: RIPK3 phosphorylation of MLKL in 293T cells; assay: MLKL phosphorylation assay (MSD), RIPK3-dependent phospho Ser358; format: cell-based, human; conditions: 293T cells with GFP-MLKL and RIPK3-mCherry, 30 min compound, normalized to DMSO
Experimental: The cDNA clones of human MLKL (RC213152) and human RIPK3 (RC209549) were purchased from Origene. To generate GFP-MLKL and RIPK3-mCherry, coding sequences of the corresponding cDNA sequences were PCR amplified and cloned into Biogen’s mammalian expression vector.
293T cells grown in 10 cm plates were transfected with GFP-MLKL alone or both GFP-MLKL and RIPK3-mCherry plasmids. After 24 hours, cells were harvested and replated into poly D lysine coated 96W plate with 20,000 cells/ml. Four hours later, cells were treated with MLKL compounds for 30 min and incubated at 37°C. Thirty minutes later, the media was removed and cells were lysed in 150μl of Cell lysis buffer (Cell Signaling, MA) containing both protease and phosphatase inhibitors. The lysates were transferred to 96 well MSD plates (Meso Scale Discovery, MD) that were precoated with anti-mouse MLKL antibody H00197259-M02, 3B2, Novus Biologicals, CO), and incubated overnight at 4°C. After washing the plates three times with 1x MSD wash buffer (50mM TRIS-HCl, 150mM NaCl, 0.02% Tween 20, pH7.5), 100 μl of 0.5μg/ml of rabbit-anti-MLKL phospho Ser358 (Abcam AB187091) was added to each well. The plates were incubated for 2 hours at room temperature. After three washes with MSD wash buffer, 100 μ l of 0.5ug/ml of SULFO-tag labeled anti-rabbit IgG was added to each well and incubated for 1 hour at room temperature. After three washes, 1x Read bufferT (Meso Scale Discovery, MD) was added and the electrochemiluminescence (ECL) was measured with a MSD Sector Imager 600.

For `Nc1nccnc1C(=O)O[C@@H](C(=O)Nc1ccc(F)cc1)c1ccccc1` [cpd 4, 3-Amino-pyrazine-2-carboxylic acid (R)-(4-fluorophenylcarbamoyl)-phenyl-methyl ester], the ΔTm at 10 µM [1] was -0.15 °C, the ΔTm at 10 µM [2] was 4 °C and the IC50 ([3]; FADD deficient Jurkat cells, TNF-α 15 ng/ml overnight, average of duplicates) was over 40000 nM. The “number of kinases inhibited out of 403” value [4] was 1, the “number of kinases inhibited out of 403” value ([4]; listed as Cpd 4) was “none” and the “effect on RIPK3-dependent phosphorylation of MLKL (phospho Ser358, in words)” value [5] was “does not impact its phosphorylation”.

Compound `CN(c1ccc(NC(=O)Nc2ccc(OC(F)(F)F)cc2)cc1)c1ccnc(Nc2cccc(S(N)(=O)=O)c2)n1` [cpd 1, reference compound] has a ΔTm at 10 µM [1] of 5 to 6 °C, a ΔTm at 10 µM [2] of 5 to 6 °C and an IC50 ([3]; Jurkat) of 1850 nM. The EC50 ([3]; FADD deficient Jurkat cells, TNF stimulation) was 1850 nM, the “number of kinases inhibited out of 403” value [4] was 56 and the “effect on RIPK3-dependent phosphorylation of MLKL (phospho Ser358, in words)” value ([5]; listed as Cpd 1) was “does not impact its phosphorylation”.
